Experimental findings from publication PMC10009755, “Discovery and Characterization of BAY-805, a Potent and Selective Inhibitor of Ubiquitin-Specific Protease USP21” (Journal of Medicinal Chemistry, 2023) are described below.

Usually solubility stands for the concentration that dissolves in the medium under given conditions. What is called Papp A→B is how fast a substance crosses the layer from the apical side. A low value points to poor permeation. For orientation: IC50 means the concentration needed to halve the response being measured. Low readings indicate greater potency in that assay, high ones weaker potency in that assay.

The structures appear in SMILES notation. Converted amounts (≈) assume the structure as drawn. Read-outs that look alike come from different tables or passages of the source.

A short description of one data set: log D measurement (HPLC). The class given is physicochemical. The settings on record: reverse-phase HPLC, pH 7.5, pH 7.5, HPLC method; read-out: logD7.5. The procedure: log D values at pH 7.5 were recorded using an indirect method for determining hydrophobicity constants by reverse-phase HPLC. A series of compounds with well-known log D values were used for calibration. Test compounds were injected into the same HPLC system. The lipophilicity of compounds was then assessed by comparison to the calibration curve.

A short description of another data set: Aqueous solubility. The class given is physicochemical. The settings on record: PBS pH 6.5, pH 6.5, PBS pH 6.5. The procedure:
Test compounds were applied as DMSO solutions or directly from powder. After the addition of the buffer, solutions were shaken at rt for 24 h. The undissolved material was removed by filtration or centrifugation. The compound dissolved in the supernatant was quantified by HPLC-UV or HPLC-MS/MS.

A short description of a further data set: in vitro. The class given is in vitro ADME. The settings on record: human, Caco-2, pH 7.2. The procedure: Caco-2 cells [purchased from the German Collection of Microorganisms and Cell Cultures (DSMZ)] were seeded at a density of 4.5 × 10^4 cells/well on 24-well insert plates [0.4 μm pore size, 0.3 cm^2 (Costar)] and grown for 13–15 days in DMEM medium supplemented with 10% fetal calf serum (FCS), 1% GlutaMAX (100×, Gibco), 100 U/mL penicillin, 100 μg/mL streptomycin (Gibco), and 1% nonessential amino acids (100×, Thermo Fischer Scientific). […] The medium was changed every 2–3 days.
The bidirectional transport assay for the evaluation of Caco-2 permeability was undertaken in 24-well insert plates using a robotic system (Tecan). Before the assay was run, the culture medium was replaced by a transport medium (FCS-free HEPES carbonate transport buffer pH 7.2). For the assessment of monolayer integrity, the transepithelial electrical resistance (TEER) was measured. Only monolayers with a TEER of at least 400 Ω·cm^2 were used. Test compounds were pre-dissolved in DMSO and added either to the apical or basolateral compartment at a final concentration of 2 μM. The evaluation was performed in triplicate. […] The efflux ratio (ER) basolateral (B) to apical (A) was calculated by dividing Papp B–A by Papp A–B.

The next data set concerns NF-κB activation. The data set can be described thus: NF-κB reporter assay. The class given is cell-based. The settings on record: HEK293T cells, up to 10 μM. The procedure: Yang and colleagues reported that USP21 inhibition induces NF-κB activation by preventing deubiquitination of RIP1.[15] K63 ubiquitinated RIP1 is required for NF-κB activation, and thus USP21-mediated deubiquitination of RIP1 shuts down the NF-κB pathway.
Four hours after replating, cells were treated with compounds or DMSO (note: DMSO concentrations were kept consistent across all cells). Promega Dual-Luciferase Reporter Assay kit was then used to prepare samples for Firefly and Renilla signal measurement on a CLARIOstar microplate reader (BMG) 20 h after compound treatment. Relative luciferase units were calculated by normalizing the Firefly signal to the background Renilla signal, followed by normalization to DMSO controls of wild-type USP21.

For data set [1], the target named is T1, C-terminal HiBiT-tagged USP21 (Homo sapiens, UniProt Q9UK80).
T1 construct: expressed in transfected cells; host or cells: HEK293T
T1 sequence (Q9UK80 1-565): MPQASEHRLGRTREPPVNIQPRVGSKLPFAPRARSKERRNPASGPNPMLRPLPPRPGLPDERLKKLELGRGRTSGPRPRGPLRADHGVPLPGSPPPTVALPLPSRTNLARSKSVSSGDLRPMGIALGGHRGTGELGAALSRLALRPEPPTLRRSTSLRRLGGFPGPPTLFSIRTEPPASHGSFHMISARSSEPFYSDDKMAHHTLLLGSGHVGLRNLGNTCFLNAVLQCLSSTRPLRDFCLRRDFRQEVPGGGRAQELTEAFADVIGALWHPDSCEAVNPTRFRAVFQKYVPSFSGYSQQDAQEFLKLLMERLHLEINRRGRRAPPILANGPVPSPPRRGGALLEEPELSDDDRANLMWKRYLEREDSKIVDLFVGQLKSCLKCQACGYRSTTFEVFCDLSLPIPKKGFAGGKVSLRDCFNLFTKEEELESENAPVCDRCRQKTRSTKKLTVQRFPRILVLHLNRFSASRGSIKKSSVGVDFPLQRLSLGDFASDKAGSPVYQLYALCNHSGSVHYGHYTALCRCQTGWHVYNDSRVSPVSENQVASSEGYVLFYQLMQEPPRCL
The data set can be described thus: USP21 HiBiT CETSA. Format: cell-based. The settings on record: 49 °C, HEK293T cells. The procedure:
In particular, we utilized a HiBiT CETSA assay format[42],[43] conducted in intact HEK293T cells. Cells were transfected with USP21 fused to a small proluminescent NanoLuc HiBiT tag, which, when complemented with the Large BiT NanoLuc fragment, produces a quantifiable luminescence signal.
HEK293T cells were seeded in a six-well plate at 8 × 10^5 cells/well in 2 mL of DMEM supplemented with 10% FBS, penicillin (100 U/mL), and streptomycin (100 μg/mL) and transfected 4 h after seeding using an X-tremeGENE HP transfection reagent, following the manufacturer’s instructions with a total of 2 μg of plasmid constructs (C-terminally tagged USP21 HiBiT and empty pCDNA3.1 vector). […] The breathable paper adhesive film was then replaced with a PCR adhesive film, and cells were heated at indicated temperatures in an Applied Biosystems VeritiPro thermal cycler for 3 min, followed by 3 min incubation at rt before the addition of LgBiT solution (200 nM LgBiT, 2% NP-40, protease inhibitors (Roche cOmplete, ethylenediaminetetraacetic acid (EDTA)-free Protease Inhibitor) in OptiMEM no phenol red (Gibco)) to lyse cells.
(In general: With HiBiT, luminescence reflects the tagged protein that the partner subunit can reach.)

Data set [2] has as its target T2, USP21 (Homo sapiens, UniProt Q9UK80).
T2 sequence (Q9UK80 1-565): T1 sequence (Q9UK80 1-565)
Description: The final assay volume was 6 μL. […] First, 2 μL of 1 nM USP21 (or selectivity enzyme) solution was added to the compound plate and preincubated for 15–20 min at room temperature. […] The reaction was stopped by 50 mM citric acid in 25 mM HEPES, pH 7.5, containing 0.01% BSA. […] The USP21 and USP22 were measured with five flashes and USP2 and USP7 in fly mode.

Data set [3] has as its target T2, USP21. The data set can be described thus: biochemical.
Description: To this end, we developed a USP21 activity assay that is based on the deubiquitination of a STING-derived peptide (a USP21-specific substrate[17],[18]) by purified recombinant human full-length USP21 using time-resolved fluorescence resonance energy transfer (TR-FRET) technology (referred to as a homogeneous time-resolved fluorescence (HTRF)-assay, for details see the Supporting Information).[39]
All substrate and enzyme solutions were diluted in an assay buffer. […] Incubation time was 15–20 min at room temperature. […] The stop solution (DUB inhibitor PR619, Abcam) was prepared in 25 mM HEPES, pH 7.5 (Alfa Aesar) containing 0.01% BSA and then left for 10 min at room temperature before filtering with a 0.2 μM PES Membrane (Thermo Fisher). The reaction was stopped with the addition of 2 μL of 200 μM PR619. […] The plates were measured on the ViewLux in screening or PHERAstar FSX in compound profiling. […] The number of flashes per well was set to 3. All of the experimental data were plotted using Genedata analysis. The Z′-factor and S/B of the assay were >0.7 and ∼2, respectively.

As for `N#Cc1ccc(Cc2nnc(NC(=O)[C@H](NC(=O)C3(C(F)(F)F)CCCCC3)C3CCCC3)s2)cc1` [Compound 20, FC(F)(F)C1(CCCCC1)C(=O)N[C@H](C2CCCC2)C(=O)Nc3nnc(Cc4ccc(cc4)C#N)s3], the chromatographic logD in the data set “log D measurement (HPLC)” was found to be 3.7. The molecule also showed a solubility at 24 h in “Aqueous solubility” of 1.33 µM (≈ 0.691 µg/mL). In the data set “in vitro” (2 μM, 2 h), this molecule yielded an apical-to-basolateral permeability (Papp A→B) at 2 h, 2 µM of 3.4 ×10⁻⁶ cm/s. Also, the efflux ratio at 2 h, 2 µM in “in vitro” (Papp B–A / Papp A–B, read-out: Caco-2 efflux ratio (ER)) was determined as 0.7. Also, the “NF-κB activation (in words)” value in the data set on NF-κB activation is given as “significant NF-κB activation levels”. Moreover, the “cellular thermal stabilization of USP21 (in words)” value in data set [1] is listed as “Strong thermal stabilization of USP21”. Also, the 50% inhibitory concentration (IC50) against USP21 [2] was determined as 8 nM; at USP21 [3] it was 13 nM.
